Read-outs that look alike come from different tables or passages of the source.
Test system: UV-induced skin tumor
Settings: for Tumor Yield (≧1 mm): average number of tumors per survivor; for Median Week to Tumor (≧1 mm): 100 μL/mouse, 5 days/wk, + 600 RBU/week UVR, 40 weeks + 12 weeks observation
Procedure: Albino hairless SKH1-hr mice (36/sex/group) were treated for 40 weeks with UVR and brimonidine gel or vehicle according to the design in table 11. […] Topical treatments were performed approximately one hour before UVR on Monday, Wednesday and Friday of each week and approximately one hour after UVR Tuesday and Thursday of each week.

Brc1c(NC2=NCCN2)ccc2nccnc12 [Brimonidine, (5-Bromo-quinoxalin-6-yl)-(4,5-dihydro-1H-imidazol-2-yl)-amine]
Reduction of tumor yield (≧1 mm) compared to the vehicle group (0.18% topical + 600 RBU/week UVR): 1.7 fold | Members of the group that acquired one or more qualifying tumors (≧1 mm) within the 52-week study period (1% topical + 600 RBU/week UVR): less than one-half | Reduction of tumor yield (≧1 mm) compared to the vehicle group (1% topical + 600 RBU/week UVR): 4.7 fold | Members of the group that acquired one or more qualifying tumors (≧1 mm) within the 52-week study period (2% topical + 600 RBU/week UVR): less than one-half | Reduction of tumor yield (≧1 mm) compared to the vehicle group (2% topical + 600 RBU/week UVR): 8.1 fold | Tumor Yield (≧1 mm) (Group 2: 0.18% topical + 600 RBU/week UVR): 2.40 tumors per survivor | Median Week to Tumor (≧1 mm) (Group 2: 0.18% topical): 48 Week | Tumor Yield (≧1 mm) (Group 3: 1% topical + 600 RBU/week UVR): 0.85 tumors per survivor | Median Week to Tumor (≧1 mm) (Group 3: 1% topical): >52 Week | Tumor Yield (≧1 mm) (Group 4: 2% topical + 600 RBU/week UVR): 0.49 tumors per survivor | Median Week to Tumor (≧1 mm) (Group 4: 2% topical): >52 Week | UV-induced skin tumor formation (topical 0.18%, 1% and 2% + 600 RBU/week UVR): dose-dependent delay | Sizes of tumors (tumor prevalence by size, FIG. 1) (with increasing concentration, topical, sexes combined): the sizes of tumors were also reduced
